Data from patent publication US20240041804A1, “NHE-1 INHIBITORS FOR THE TREATMENT OF CORONAVIRUS INFECTIONS” (priority 2020, published 2024).
“Also recorded” adds a separate entry of the source. Where two headings read alike, the source gives them in different places.

Key:
[1] = target: T1, NHE-1 (Mus musculus, UniProt Q61165); test: 22Na+ influx in myotube cultures; assay type: cell-based
T1 construct: time-course of ^22Na^+ influx studied in wild type and dystrophic myotube cultures; endogenous in cells; host or cells: primary wild type and dystrophic myotubes
T1 sequence (Q61165 whole entry): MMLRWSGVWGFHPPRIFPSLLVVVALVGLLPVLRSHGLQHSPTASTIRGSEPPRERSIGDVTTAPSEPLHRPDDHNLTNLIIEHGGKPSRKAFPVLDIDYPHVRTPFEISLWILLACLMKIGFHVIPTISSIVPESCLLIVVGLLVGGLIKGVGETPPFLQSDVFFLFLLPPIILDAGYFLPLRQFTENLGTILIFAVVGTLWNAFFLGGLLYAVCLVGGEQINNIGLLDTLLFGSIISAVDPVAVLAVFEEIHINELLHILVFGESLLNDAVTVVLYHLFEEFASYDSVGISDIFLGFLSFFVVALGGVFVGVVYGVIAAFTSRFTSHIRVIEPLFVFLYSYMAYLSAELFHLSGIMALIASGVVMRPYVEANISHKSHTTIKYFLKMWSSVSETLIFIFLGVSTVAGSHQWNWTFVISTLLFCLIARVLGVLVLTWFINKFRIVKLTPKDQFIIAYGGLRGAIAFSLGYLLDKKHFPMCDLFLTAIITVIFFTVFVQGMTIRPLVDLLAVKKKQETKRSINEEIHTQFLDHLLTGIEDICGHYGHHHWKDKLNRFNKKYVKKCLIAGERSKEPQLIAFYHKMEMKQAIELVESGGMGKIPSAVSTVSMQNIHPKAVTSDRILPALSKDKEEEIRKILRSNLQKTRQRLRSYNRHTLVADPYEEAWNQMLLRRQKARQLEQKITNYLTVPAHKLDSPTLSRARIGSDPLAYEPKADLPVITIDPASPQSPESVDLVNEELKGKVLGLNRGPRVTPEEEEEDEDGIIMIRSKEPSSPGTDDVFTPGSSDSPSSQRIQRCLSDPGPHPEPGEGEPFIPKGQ

[2] = test system: store-operated calcium entry (SOCE); test: Store-operated calcium entry (45Ca2+ accumulation) in myotubes; assay type: cell-based
[3] = test system: human platelet swelling; test: In vitro platelet swelling assay with human platelet rich plasma; assay type: cell-based; conditions: OD 680 nm, pH 6.6, read-out: IC50 of inhibition of platelet swelling (+SEM)
[4] = test system: plasma circulating biomarkers (CCL15, KLK6, FAS, TNFα, MCP-1/CCL2); set-up: Term, TNFα: unit not given here; conditions: DMD patients, 4-week oral treatment, cited from earlier work
[5] = test system: male mdx mice; test: Cathepsin enzyme activity by optical imaging (skeletal muscle inflammation) in mdx mice; assay type: in vivo, mouse; conditions: 400 ppm Rimeporide in food, 5 weeks
[6] = test system: platelet swelling; test: Ex vivo platelet swelling, Rimeporide single oral ascending dose study; assay type: in vivo, human; conditions: single oral dose 300 to 600 mg, healthy male volunteers
[7] = test system: Su/Hx rat model of PAH; test: Su/Hx rat model of PAH: pulmonary vascular fibrosis (Masson trichome); assay type: in vivo; conditions: 100 mg/kg/day in drinking water week 5-8; Su/Hx+Rime vs Su/Hx, week 8
[8] = single oral dose
[9] = test system: male mdx mice; test: Ex vivo H&E histopathology of diaphragm inflammation in mdx mice; set-up: species or system mouse; conditions: 400 ppm Rimeporide
[10] = test system: platelet swelling; test: Ex vivo platelet swelling, Rimeporide multiple ascending dose study; assay type: in vivo, human; conditions: day 3, multiple ascending dose study
[11] = test system: Su/Hx rat model of PAH; test: Su/Hx rat model of PAH: invasive hemodynamic monitoring; assay type: in vivo; conditions: 100 mg/kg/day in drinking water week 5-8; Su/Hx+Rime vs Su/Hx, week 8
[12] = test system: platelet aggregation
[13] = test system: pigs of myocardial infarction; test: Anesthetized open-chest pig model of myocardial infarction; assay type: in vivo; conditions: 1 mg/kg iv before occlusion, 7 mg/kg iv before reperfusion
[14] = test system: rat model of heart failure; test: Rat model of heart failure after myocardial infarction (permanent left coronary artery ligation); assay type: in vivo
[15] = target: T2, sodium-hydrogen exchange activity (NHE-1) (Rattus norvegicus, UniProt P26431); test: NHE activity (BCECF) in rat pulmonary arterial smooth muscle cells; assay type: cell-based; conditions: PASMCs of Su/Hx pulmonary hypertension rats, 10^-6 to 10^-4 M
T2 construct: performed in rat PASMCs in vitro of both Normoxic and Su/Hx pulmonary hypertension (PH) rats; endogenous in cells; host or cells: primary rat PASMCs from normoxic and Su/Hx pulmonary hypertension rats
T2 sequence (P26431 whole entry): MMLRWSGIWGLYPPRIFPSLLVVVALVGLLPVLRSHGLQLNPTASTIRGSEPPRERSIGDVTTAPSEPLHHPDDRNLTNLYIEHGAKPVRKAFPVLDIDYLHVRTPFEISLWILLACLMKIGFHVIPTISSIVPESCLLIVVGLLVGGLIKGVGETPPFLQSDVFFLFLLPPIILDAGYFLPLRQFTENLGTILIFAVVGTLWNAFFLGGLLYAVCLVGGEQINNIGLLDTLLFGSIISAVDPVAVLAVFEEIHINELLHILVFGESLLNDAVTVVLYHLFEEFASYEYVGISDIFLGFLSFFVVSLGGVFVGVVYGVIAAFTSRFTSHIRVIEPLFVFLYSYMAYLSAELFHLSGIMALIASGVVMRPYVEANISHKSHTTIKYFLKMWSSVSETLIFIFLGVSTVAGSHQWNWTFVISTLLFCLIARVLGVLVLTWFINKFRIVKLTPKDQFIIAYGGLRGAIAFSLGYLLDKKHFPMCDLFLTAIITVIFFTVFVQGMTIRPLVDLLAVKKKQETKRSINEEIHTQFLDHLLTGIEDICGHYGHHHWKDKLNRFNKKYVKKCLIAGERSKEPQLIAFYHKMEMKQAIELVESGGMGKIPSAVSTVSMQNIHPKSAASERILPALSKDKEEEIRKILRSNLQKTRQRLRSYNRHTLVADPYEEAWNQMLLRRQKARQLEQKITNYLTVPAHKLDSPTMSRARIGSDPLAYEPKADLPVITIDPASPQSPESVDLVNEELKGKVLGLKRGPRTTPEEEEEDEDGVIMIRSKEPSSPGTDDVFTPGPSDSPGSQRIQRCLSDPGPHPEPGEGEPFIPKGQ

[16] = test system: dystrophic, mdx mice; test: Fibrosis in heart and diaphragm of mdx mice; assay type: in vivo, mouse; conditions: given in a preventive manner
[17] = test system: Su/Hx rat model of PAH; test: Su/Hx rat model of PAH: lung inflammation (CD68); assay type: in vivo; conditions: 100 mg/kg/day in drinking water week 5-8; Su/Hx+Rime vs Su/Hx, week 8
[18] = test system: rat model of myocardial infarction; test: Rat model of myocardial infarction (30 min occlusion, 90 min reperfusion); assay type: in vivo; conditions: prophylactic, 0.01 to 1 mg/kg intravenously and 0.1 to 1 mg/kg per os
[19] = test system: Su/Hx rat model of PAH; test: Su/Hx rat model of PAH: right ventricle hypertrophy and fibrosis; assay type: in vivo; conditions: 100 mg/kg/day in drinking water week 5-8; Su/Hx+Rime vs Su/Hx, week 8
[20] = test system: Su/Hx rat model of PAH; test: Su/Hx rat model of PAH: echocardiography; assay type: in vivo; conditions: 100 mg/kg/day in drinking water week 5-8; Su/Hx+Rime vs Su/Hx, week 8
[21] = test system: platelet swelling; test: Ex vivo platelet swelling, Eniporide phase I studies in healthy subjects; set-up: species or system human
[22] = test system: LPS induced lung injury; conditions: amiloride pretreatment 10 mg/kg intravenous injection, rats; cited from earlier work
[23] = target: SARS-CoV envelope protein ion channels (SARS-CoV E protein) (Severe acute respiratory syndrome coronavirus, UniProt P59637); conditions: cited from earlier work
Sequence of SARS-CoV envelope protein ion channels (SARS-CoV E protein) (P59637 whole entry, looked up): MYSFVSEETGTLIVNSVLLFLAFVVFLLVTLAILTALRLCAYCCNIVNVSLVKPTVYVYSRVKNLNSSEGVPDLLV

## NC1=N[C@H](O)[C@H]2[C@H]3O[C@]4(O)O[C@@H]([C@@H](O)[C@@]2(N1)[C@@H]4O)[C@]3(O)CO [tetrodotoxin]
[1]
  further decrease of 22Na+ influx: around 8%

## N=C(N)NC(=O)c1cnn(-c2cccc3ncccc23)c1C1CC1 [Zoniporide, reference compound]
[1]; myotubes
  comparison of NHE inhibitors on 22Na+ fluxes (rank order): Zoniporide>Cariporide, EIPA>Rimeporide
[2]
  comparison of NHE inhibitors on SOCE (rank order): Zoniporide>Cariporide, EIPA>Rimeporide

## CC(C)c1ccc(C(=O)NC(=N)N)cc1S(C)(=O)=O [Cariporide, N-(Diaminomethylidene)-3-methanesulfonyl-4-(propan-2-yl) benzamide]
[3]
  IC50: 166 nM
[1]
  comparison of NHE inhibitors on 22Na+ fluxes (rank order): Zoniporide>Cariporide, EIPA>Rimeporide
[2]
  comparison of NHE inhibitors on SOCE (rank order): Zoniporide>Cariporide, EIPA>Rimeporide

## CCN(c1nc(N)c(C(=O)N=C(N)N)nc1Cl)C(C)C [EIPA, 5-(N-ethyl-N-isopropyl)amiloride, reference compound]
[1]; myotubes
  comparison of NHE inhibitors on 22Na+ fluxes (rank order): Zoniporide>Cariporide, EIPA>Rimeporide
[2]; myotubes
  comparison of NHE inhibitors on SOCE (rank order): Zoniporide>Cariporide, EIPA>Rimeporide

## Cc1cc(S(C)(=O)=O)c(S(C)(=O)=O)cc1C(=O)NC(=N)N [Rimeporide, N-(4,5-bismethanesulfonyl-2-methylbenzoyl)guanidine]
[3]
  IC50: 455 nM
[4]; Luminex
  Term, TNFα: −0.1726
[4]; OLink
  Term, CCL15: −0.4489
  Term, FAS: −0.2823
  Term, KLK6: −0.2612
  Term, MCP-1/CCL2: −0.5675
[5]; forelimb
  reduction in Cathepsin B activity, forelimb: −26%
[5]; hindlimb
  reduction in Cathepsin B activity, hindlimb: −22%
[6]
  rate constant of platelet swelling reaction post-dose vs pre-dose: post-dose decrease in rate constant was consistently observed
[7]
  pulmonary vascular fibrosis: significantly lower fibrosis
[8]; 1 hour post-dose
  plasma concentration, Subject 15: 159 ng/mL
[8]; 3 hours post-dose
  plasma concentration, Subject 15: 3690 ng/mL
[9]
  reduction in inflammation in the diaphragm (H&E) relative to vehicle: 44%
[1]; 100 μM, after 10 to 20 min of influx, myotube cultures, read-out: inhibition of 22Na+ accumulation / Na+ influx
  inhibition at 100 µM: ~40%
[1]; myotubes
  comparison of NHE inhibitors on 22Na+ fluxes (rank order): weakest inhibitor
[1]; pretreatment 1-100 μM, normal and dystrophic myotubes
  effect on 22Na+ accumulation: dose-dependent inhibition
[10]
  subjects with some evidence of platelet swelling inhibition: 67%
[11]
  RV End Diastolic Pressure (EDP): significantly lower pressure
  RV Tau: significantly lower Tau
  RV systolic pressure: significantly lower pressure
[2]
  effect on store-operated calcium entry (SOCE): inhibition of SOCE; also recorded: dose-dependently prevented SOCE
[2]; dystrophic myotubes
  concentration giving strong SOCE inhibition reaching basal levels: 30 µM
  lowest concentration with statistical differences in SOCE inhibition: 3 µM
[2]; myotubes
  comparison of NHE inhibitors on SOCE (rank order): weakest inhibitor
[12]; Rimeporide single oral dose, 10 μM ADP, 3, 24 and 48 hours post-dose
  effect on platelet aggregation: no evidence of inhibition of platelet aggregation
[13]
  infarct size: decrease infarct size
[14]
  myocardial hypertrophy and left ventricular function: significantly and dose dependently reduce myocardial hypertrophy and preserve left ventricular function
  survival: substantial improvement in survival
[15]
  effect on NHE activity in PASMCs: inhibits NHE activity in the PASMCs in a dose-dependent manner
Rimeporide single oral dose study
  effects on PT and APTT: No effects
[16]
  fibrosis in the heart and the diaphragm: antifibrotic effect
[17]
  percentage of CD68+ cells relative to total nuclei in lung tissue: significantly lower
[18]
  infarct size: reduce dose dependent infarct size
[19]
  RV fibrosis (Sirius Red): significantly lower fibrosis
  Right Ventricle/Left Ventricle+Septum (RV/LV+S) weight ratio: no statistically significant difference
[20]
  Mean Pulmonary Arterial Pressure (mPAP): significantly lower mPAP
  Pulmonary Artery Acceleration Time/Ejection Time (PA AT/ET): significantly higher PA AT/ET ratio
  RV cardiac output (CO): significantly higher RV CO
  RV free wall thickness: significantly lower RV free wall thickness
  RV internal diameter at diastole: significantly lower RV internal diameter

## Cc1cc(-n2cccc2)c(S(C)(=O)=O)cc1C(=O)NC(=N)N [Eniporide, N-(diaminomethylidene)-2-methyl-5-methylsulfonyl-4-pyrrol-1-ylbenzamide]
[3]
  IC50: 30 nM
[21]; 50 mg and above, intravenous
  inhibition of platelet swelling immediately post dosing: total inhibition
[21]; 2 times 200 mg as an infusion, 6 hours post first dose
  inhibitory activity on platelet swelling: 80%
[21]; 1.5 hours post dose, doses 100-200 mg
  inhibitory activity on platelet swelling remaining: More than 80%
[21]; 3 hours post dose, doses 250-400 mg
  inhibitory activity on platelet swelling remaining: More than 80%
[21]; healthy subjects, single intravenous dose
  dose from which platelet swelling was reduced: ≥ 5 mg
[12]; human, in vivo
  effect on platelet aggregation: No clinically relevant effect
human, in vivo
  effects on PT or APTT: no clinically relevant effects

## NC(N)=NC(=O)c1nc(Cl)c(N)nc1N [Amiloride, 3,5-Diamino-N-carbamimidoyl-6-chlorpyrazin-2-carbamid]
[22]
  LPS induced lung injury: significantly inhibited
[23]
  effect on activity of E-proteins (ion channel): quasi-ineffective

## NC(N)=NC(=O)c1nc(Cl)c(N2CCCCCC2)nc1N [HMA, 5-N, N-(hexamethylene)amiloride]
[23]
  effect on activity of E-proteins (ion channel): significantly reduced activity of E-proteins

## Cc1nnsc1C(=O)Nc1ccc(-n2nc(C(F)(F)F)cc2C(F)(F)F)cc1 [BTP-2, reference compound]
[2]
  effect on store-operated calcium entry (SOCE): abolished
[2]; 10 μM
  inhibition of Ca2+ flux (SOCE protocol): almost complete inhibition
